Source: US9187472B2 (AbbVie Inc., priority 2012, dated 2015)

Key:
[1] = biological target: NAMPT (human, recombinant, C-terminally His-tagged) (Homo sapiens, UniProt P43490); experiment: Time-Resolved Fluorescence Resonance Energy Transfer (TR-FRET) Binding Assay of NAMPT; conditions: without substrates; 6.8 nM NAMPT, 200 nM probe, 3 hours equilibration
How it was run: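 A TR-FRET probe-displacement assay used 6.8 nM His-tagged recombinant human NAMPT, 200 nM Oregon Green 488-labelled nicotinamide-competitive probe and 1 nM Tb-anti-His antibody. Buffer was HEPES pH 7.5 with NaCl, MgCl2, DTT and glycerol, plus 2% DMSO, equilibrated 3 h at room temperature. Em520/Em495 ratios, normalized to controls, gave IC50 by four-parameter logistic fit.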

[2] = biological target: NAMPT (Homo sapiens, UniProt P43490); experiment: TR-FRET Binding Assay of NAMPT with PRPP; conditions: with 200 μM PRPP and 2.5 mM ATP; 2 nM NAMPT, 2 nM probe, 16 hours equilibration
How it was run: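 Human NAMPT (2 nM) with 2 nM probe and 1 nM Tb-anti-His antibody, plus 200 μM PRPP and 2.5 mM ATP, 2% DMSO. TR-FRET read after 16 h equilibration, permitting possible enzymatic modification of test compounds; data processing as for the substrate-free format.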

[3] = system: PC3 cells; experiment: NAMPT Cell Proliferation Assay; assay type: cell-based; conditions: Homo sapiens, PC-3, 120 h, 5 days incubation, cell viability by Cell Titer Glo
How it was run: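 IC50 values derive from sigmoidal dose-response fits of percent inhibition of PC3 viability, measured by luminescence after 5 days of compound treatment. Cells (500/well, RPMI containing 10% heat-inactivated FBS) are allowed to attach overnight, and compounds are tested at 10-fold dilutions between 10 μM and 1×10^−5 μM.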

NAMPT, sequence (P43490 whole entry): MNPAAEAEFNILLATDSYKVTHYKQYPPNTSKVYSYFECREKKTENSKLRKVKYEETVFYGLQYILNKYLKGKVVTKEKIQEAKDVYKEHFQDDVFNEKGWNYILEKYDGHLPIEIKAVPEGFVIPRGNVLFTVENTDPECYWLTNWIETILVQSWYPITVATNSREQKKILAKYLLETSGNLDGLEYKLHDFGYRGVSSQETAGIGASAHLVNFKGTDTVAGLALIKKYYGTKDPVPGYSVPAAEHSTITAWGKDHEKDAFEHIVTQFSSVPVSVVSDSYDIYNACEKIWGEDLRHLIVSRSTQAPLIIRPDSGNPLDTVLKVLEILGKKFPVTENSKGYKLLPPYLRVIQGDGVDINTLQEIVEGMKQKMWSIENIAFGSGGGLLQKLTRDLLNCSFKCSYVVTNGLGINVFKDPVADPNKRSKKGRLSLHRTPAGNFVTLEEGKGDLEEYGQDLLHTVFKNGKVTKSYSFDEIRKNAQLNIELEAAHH
NAMPT (human, recombinant, C-terminally His-tagged), sequence (P43490 whole entry): as above

Q: Which results are given for `O=C(NCc1ccn2ccnc2c1)c1ccc(C2CN(C(=O)c3nccs3)C2)cc1` [Example 664, N-(imidazo[1,2-a]pyridin-7-ylmethyl)-4-[1-(1,3-thiazol-2-ylcarbonyl)azetidin-3-yl]benzamide]?
A: IC50 [1]: 214 nM; IC50 [2]: 0.733 nM; IC50 [3]: 71.5 nM

Q: Which results are given for `CC[C@H](C)C(=O)N1CCC(c2ccc(C(=O)NCc3ccn4ccnc4c3)cc2)C1` (stereo partly drawn) [Example 368, N-(imidazo[1,2-a]pyridin-7-ylmethyl)-4-{1-[(2S)-2-methylbutanoyl]pyrrolidin-3-yl}benzamide]?
A: IC50 [1]: 602 nM; IC50 [2]: 0.317 nM; IC50 [3]: 48.4 nM

Q: What does the source list for `COCCOCC(=O)N1CC=C(c2ccc(NC(=O)Nc3ccc4nccn4c3)cc2)CC1` [Example 32, 1-imidazo[1,2-a]pyridin-6-yl-3-(4-{1-[(2-methoxyethoxy)acetyl]-1,2,3,6-tetrahydropyridin-4-yl}phenyl)urea]?
A: IC50 [1]: 906 nM; IC50 [2]: 0.169 nM; IC50 [3]: 284 nM

Q: `O=C(CC1CCOC1)Nc1ccc(C(=O)NCc2ccc3nccn3c2)cc1` (stereo not drawn) [Example 78, N-(imidazo[1,2-a]pyridin-6-ylmethyl)-4-[(tetrahydrofuran-3-ylacetyl)amino]benzamide] was tested. Which IC50 [1] did it give?
A: Its IC50 is 56.5 nM.

Q: What about the IC50 [2] of the same compound?
A: The IC50 was 2.4 nM.

Q: What about the IC50 [3] of the same compound?
A: Its IC50 is 40.7 nM.

Q: Which IC50 [1] does the source give for `CN1CCC(C(=O)N2CC=C(c3ccc(NC(=O)Nc4ccc5nccn5c4)cc3)CC2)CC1` [Example 36, 1-imidazo[1,2-a]pyridin-6-yl-3-(4-{1-[(1-methylpiperidin-4-yl)carbonyl]-1,2,3,6-tetrahydropyridin-4-yl}phenyl)urea] here?
A: The IC50 was 356 nM.

Q: What about the IC50 [2] of the same compound?
A: The IC50 was 0.444 nM.

Q: What about the IC50 [3] of the same compound?
A: Its IC50 is 51.4 nM.

Q: For `O=C(NCc1ccn2ccnc2c1)c1ccc(C2=CCN(C(=O)CC3CC3)CC2)o1` [Example 750, 5-[1-(cyclopropylacetyl)-1,2,3,6-tetrahydropyridin-4-yl]-N-(imidazo[1,2-a]pyridin-7-ylmethyl)furan-2-carboxamide], which IC50 [1] is on record?
A: The IC50 was 1530 nM.

Q: What about the IC50 [2] of the same compound?
A: The IC50 was 1.54 nM.

Q: And the IC50 [3]?
A: Its IC50 is 794 nM.

Q: For `CC(C)OCC(=O)N1CCC(CCCCNC(=O)Nc2ccc3nccn3c2)CC1` [Example 62, 1-imidazo[1,2-a]pyridin-6-yl-3-(4-{1-[(propan-2-yloxy)acetyl]piperidin-4-yl}butyl)urea], which IC50 [1] is on record?
A: Its IC50 is 250 nM.

Q: What about the IC50 [2] of the same compound?
A: The IC50 was 0.456 nM.

Q: What about the IC50 [3] of the same compound?
A: The IC50 was 16.5 nM.

Q: `O=C(NCc1ccn2ccnc2c1)c1ccc(C2CCN(C(=O)c3ccccc3)C2)cc1` (stereo not drawn) [Example 370, 4-(1-benzoylpyrrolidin-3-yl)-N-(imidazo[1,2-a]pyridin-7-ylmethyl)benzamide] was tested. Which IC50 [1] did it give?
A: Its IC50 is 47.6 nM.

Q: What about the IC50 [2] of the same compound?
A: The IC50 was 0.175 nM.

Q: What about the IC50 [3] of the same compound?
A: The IC50 was 9.93 nM.

Q: With `O=C(NCc1ccn2ccnc2c1)c1cnc(C2CCN(c3ccccc3)CC2)s1` [Example 688, N-(imidazo[1,2-a]pyridin-7-ylmethyl)-2-(1-phenylpiperidin-4-yl)-1,3-thiazole-5-carboxamide] as the compound, how does the IC50 [1] read?
A: The IC50 was 1110 nM.

Q: What about the IC50 [2] of the same compound?
A: Its IC50 is 2.66 nM.

Q: And the IC50 [3]?
A: The IC50 was 5480 nM.

Q: What does the source list for `CC(C)(C)OC(=O)N1CCC(O)(c2ccc(C(=O)NCc3ccn4ccnc4c3)s2)CC1` [Example 403, tert-butyl 4-hydroxy-4-{5-[(imidazo[1,2-a]pyridin-7-ylmethyl)carbamoyl]thiophen-2-yl}piperidine-1-carboxylate]?
A: IC50 [1]: 1550 nM; IC50 [2]: 0.847 nM; IC50 [3]: 54.5 nM

Q: `CC1(Cn2cc(-c3ccc(C(=O)NCc4ccn5ccnc5c4)s3)cn2)CCNCC1` [Example 789, N-(imidazo[1,2-a]pyridin-7-ylmethyl)-5-{1-[(4-methylpiperidin-4-yl)methyl]-1H-pyrazol-4-yl}thiophene-2-carboxamide] was tested. Which IC50 [1] did it give?
A: Its IC50 is 21.7 nM.

Q: And the IC50 [2]?
A: Its IC50 is 0.434 nM.

Q: What about the IC50 [3] of the same compound?
A: The IC50 was 69.4 nM.

Q: Which IC50 [1] does the source give for `O=C(NCc1ccn2ccnc2c1)Nc1ccc(OC2CN(C(=O)C3CCOCC3)C2)cc1` [Example 433, 1-(imidazo[1,2-a]pyridin-7-ylmethyl)-3-(4-{[1-(tetrahydro-2H-pyran-4-ylcarbonyl)azetidin-3-yl]oxy}phenyl)urea] here?
A: Its IC50 is 200 nM.

Q: And the IC50 [2]?
A: The IC50 was 0.248 nM.

Q: What about the IC50 [3] of the same compound?
A: The IC50 was 64.4 nM.

Q: With `CC(C)(O)C(=O)N1CCC(c2ccc(NC(=O)NCc3ccn4ccnc4c3)cc2)C1` (stereo not drawn) [Example 385, 1-{4-[1-(2-hydroxy-2-methylpropanoyl)pyrrolidin-3-yl]phenyl}-3-(imidazo[1,2-a]pyridin-7-ylmethyl)urea] as the compound, how does the IC50 [1] read?
A: The IC50 was 491 nM.

Q: And the IC50 [2]?
A: The IC50 was 0.539 nM.

Q: What about the IC50 [3] of the same compound?
A: Its IC50 is 110 nM.

Q: For `O=C(NCc1ccc2ncnn2c1)c1ccc(-c2cnn(CC3(F)CCOCC3)c2)o1` [Example 810, 5-{1-[(4-fluorotetrahydro-2H-pyran-4-yl)methyl]-1H-pyrazol-4-yl}-N-([1,2,4]triazolo[1,5-a]pyridin-6-ylmethyl)furan-2-carboxamide], which IC50 [1] is on record?
A: Its IC50 is 481 nM.

Q: And the IC50 [2]?
A: The IC50 was 12.6 nM.

Q: What about the IC50 [3] of the same compound?
A: The IC50 was 327 nM.

Q: Which IC50 [1] does the source give for `CCS(=O)(=O)N1CCC(c2ccc(C(=O)NCc3ccn4ccnc4c3)cc2)C1` (stereo not drawn) [Example 625, 4-[1-(ethylsulfonyl)pyrrolidin-3-yl]-N-(imidazo[1,2-a]pyridin-7-ylmethyl)benzamide] here?
A: Its IC50 is 795 nM.

Q: And the IC50 [2]?
A: The IC50 was 0.76 nM.

Q: What about the IC50 [3] of the same compound?
A: Its IC50 is 226 nM.

Q: Which results are given for `N#Cc1ccc(C(=O)N2CCC(c3ccc(C(=O)NCc4ccn5ccnc5c4)s3)C2)cc1` (stereo not drawn) [Example 766, 5-[1-(4-cyanobenzoyl)pyrrolidin-3-yl]-N-(imidazo[1,2-a]pyridin-7-ylmethyl)thiophene-2-carboxamide]?
A: IC50 [1]: 61.5 nM; IC50 [2]: 0.581 nM; IC50 [3]: 6.36 nM

Q: Which IC50 [1] does the source give for `CC1(C(=O)N2CC(c3ccc(C(=O)NCc4ccn5ccnc5c4)cc3)C2)CC1` [Example 632, N-(imidazo[1,2-a]pyridin-7-ylmethyl)-4-{1-[(1-methylcyclopropyl)carbonyl]azetidin-3-yl}benzamide] here?
A: Its IC50 is 270 nM.

Q: What about the IC50 [2] of the same compound?
A: The IC50 was 0.698 nM.

Q: And the IC50 [3]?
A: Its IC50 is 32.3 nM.

Q: For `O=C(NCc1ccn2ccnc2c1)c1ccc(C2=CCN(S(=O)(=O)c3ccccc3)CC2)o1` [Example 801, N-(imidazo[1,2-a]pyridin-7-ylmethyl)-5-[1-(phenylsulfonyl)-1,2,3,6-tetrahydropyridin-4-yl]furan-2-carboxamide], which IC50 [1] is on record?
A: Its IC50 is 866 nM.

Q: And the IC50 [2]?
A: Its IC50 is 1 nM.

Q: And the IC50 [3]?
A: Its IC50 is 57.3 nM.

Q: Which IC50 [1] does the source give for `CC[C@H](C)C(=O)N1CCC(Oc2ccc(C(=O)NCc3ccn4ccnc4c3)cc2)CC1` [Example 413, N-(imidazo[1,2-a]pyridin-7-ylmethyl)-4-({1-[(2S)-2-methylbutanoyl]piperidin-4-yl}oxy)benzamide] here?
A: The IC50 was 805 nM.

Q: And the IC50 [2]?
A: Its IC50 is 0.279 nM.

Q: What about the IC50 [3] of the same compound?
A: Its IC50 is 190 nM.

Q: Which IC50 [1] does the source give for `O=C(NCc1ccn2ccnc2c1)c1ccc(C2CCN(C(=O)[C@H]3CCCO3)C2)cc1` (stereo partly drawn) [Example 373, N-(imidazo[1,2-a]pyridin-7-ylmethyl)-4-{1-[(2R)-tetrahydrofuran-2-ylcarbonyl]pyrrolidin-3-yl}benzamide] here?
A: The IC50 was 3040 nM.

Q: What about the IC50 [2] of the same compound?
A: Its IC50 is 0.36 nM.

Q: What about the IC50 [3] of the same compound?
A: Its IC50 is 585 nM.

Q: With `O=C(NCc1ccn2ccnc2c1)c1cnc(N(C[C@H]2CCCO2)C(=O)CCc2cnoc2)s1` [Example 195, N-(imidazo[1,2-a]pyridin-7-ylmethyl)-2-{[3-(1,2-oxazol-4-yl)propanoyl][(2R)-tetrahydrofuran-2-ylmethyl]amino}-1,3-thiazole-5-carboxamide] as the compound, how does the IC50 [1] read?
A: The IC50 was 24.7 nM.

Q: And the IC50 [2]?
A: The IC50 was 0.251 nM.

Q: What about the IC50 [3] of the same compound?
A: Its IC50 is 0.966 nM.

Q: How did the IC50 [1] turn out when `O=C(NCc1ccn2ccnc2c1)c1ccc(O[C@H]2CCN(C(=O)[C@@H]3CCOC3)C2)cc1` [Example 339, N-(imidazo[1,2-a]pyridin-7-ylmethyl)-4-({(3S)-1-[(3R)-tetrahydrofuran-3-ylcarbonyl]pyrrolidin-3-yl}oxy)benzamide] was run?
A: Its IC50 is greater than 10000 nM.

Q: What about the IC50 [2] of the same compound?
A: Its IC50 is 0.797 nM.

Q: And the IC50 [3]?
A: Its IC50 is 9180 nM.
